Several values for one entry are separate records, joined by “and”; a condition that tells them apart may be missing. Identical values can stand only once. Toxic doses and inconclusive results are not listed. Rule as the data show it: active = T/C of 150% or more; inactive = T/C below 125%.
System: L1210 leukemia ip in BDF1 mice, survival T/C
Assay: NCI In Vivo Anticancer Drug Screen. Data for tumor model L1210 Leukemia (intraperitoneal) in B6D2F1 (BDF1) mice
Details: endpoint: mean survival time, higher = longer survival
Outline: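 Each compound was tested against a transplantable tumor grown in mice. The endpoint was survival, with treated animals benchmarked against vehicle controls as a simple ratio.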

[1] = dose: 50.0 mg/kg/injection, schedule: Q01DX009 (ip), vehicle: saline
[2] = dose: 100.0 mg/kg/injection, schedule: Q01DX009 (ip), vehicle: saline
[3] = dose: 100.0 mg/kg/injection, schedule: Q04DX003 (ip), vehicle: saline
[4] = dose: 200.0 mg/kg/injection, schedule: Q01DX009 (ip), vehicle: saline
[5] = dose: 200.0 mg/kg/injection, schedule: Q04DX003 (ip), vehicle: saline
[6] = dose: 400.0 mg/kg/injection, schedule: Q04DX003 (ip), vehicle: saline
[7] = dose: 100.0 mg/kg/injection, schedule: Q04DX003 (ip), vehicle: saline with Tween-80
[8] = dose: 200.0 mg/kg/injection, schedule: Q04DX003 (ip), vehicle: saline with Tween-80
[9] = dose: 400.0 mg/kg/injection, schedule: Q01DX009 (ip), vehicle: saline
[10] = dose: 400.0 mg/kg/injection, schedule: Q04DX003 (ip), vehicle: saline with Tween-80

Measured: T/C

O=C1C(CO)=C[C@@H](O)[C@H]2O[C@@H]12
inactive: dose: 3.0 mg/kg/injection, schedule: Q01DX009 (ip), vehicle: saline 93 % of control | dose: 6.0 mg/kg/injection, schedule: Q01DX009 (ip), vehicle: saline 93 % of control | dose: 12.0 mg/kg/injection, schedule: Q01DX009 (ip), vehicle: saline 95 % of control | dose: 25.0 mg/kg/injection, schedule: Q01DX001 (ip), vehicle: saline 98 % of control | dose: 25.0 mg/kg/injection, schedule: Q01DX009 (ip), vehicle: saline 98 % of control | dose: 50.0 mg/kg/injection, schedule: Q01DX001 (ip), vehicle: saline 121 % of control | [1] 121 % of control | dose: 75.0 mg/kg/injection, schedule: Q01DX009 (ip), vehicle: saline 102 % of control | dose: 100.0 mg/kg/injection, schedule: Q01DX001 (ip), vehicle: saline 103 % of control and 123 % of control | dose: 150.0 mg/kg/injection, schedule: Q01DX009 (ip), vehicle: saline 109 % of control | dose: 200.0 mg/kg/injection, schedule: Q01DX001 (ip), vehicle: saline 106 % of control | dose: 400.0 mg/kg/injection, schedule: Q01DX001 (ip), vehicle: saline 111 % of control

CCCCCCCCCCCCCCCCCCN(c1ccc(C(=O)OCC)cc1)S(=O)(=O)c1ccc(C)cc1
inactive: [1] 93 % of control | [2] 93 % of control | [3] 97 % of control | [4] 90 % of control | [5] 94 % of control | [6] 94 % of control

O=C(COc1ccc(Cl)c(Cl)c1)NCCc1cc[n+](Cc2ccc(S(=O)(=O)F)cc2)cc1
inactive: [7] 102 % of control | [8] 86 % of control

O=C1NC(=O)C(C2CCCCC2)(C2CCCCC2)N1
inactive: [2] 103 % of control | [7] 107 % of control | [4] 94 % of control | [8] 107 % of control | [9] 88 % of control | [10] 93 % of control

CN(C)C/C(=C\c1ccccc1)C(=O)c1ccccc1
inactive: dose: 100.0 mg/kg/injection, schedule: Q04DX003 (ip), vehicle: other 98 % of control

CCCOP(=S)(N1CC1)N1CC1
inactive: dose: 44.0 mg/kg/injection, schedule: Q01DX001 (ip), vehicle: saline 114 % of control

OCc1cccc(F)c1
inactive: [2] 98 % of control | [3] 105 % of control | [4] 95 % of control | [5] 102 % of control | [9] 98 % of control | [6] 104 % of control

CCCCC(CCCC)NCCOC(=O)c1ccc(N)cc1
inactive: dose: 75.0 mg/kg/injection, schedule: Q01DX001 (ip), vehicle: other 102 % of control

Cc1ccc2c(c1)SCc1c-2[nH]c2ccccc12
inactive: [7] 103 % of control | [8] 100 % of control | [10] 108 % of control

CCCCc1c(C)[nH]c(=S)[nH]c1=O
inactive: dose: 100.0 mg/kg/injection, schedule: Q01DX009 (ip), vehicle: saline with Tween-80 95 % of control | dose: 200.0 mg/kg/injection, schedule: Q01DX009 (ip), vehicle: saline with Tween-80 100 % of control | dose: 400.0 mg/kg/injection, schedule: Q01DX009 (ip), vehicle: saline with Tween-80 91 % of control

C[n+]1ccc(/C=C/c2csc3ccccc23)cc1
inactive: dose: 5.0 mg/kg/injection, schedule: Q01DX001 (ip), vehicle: carboxymethylcellulose (CMC) 107 % of control | dose: 10.0 mg/kg/injection, schedule: Q01DX001 (ip), vehicle: carboxymethylcellulose (CMC) 96 % of control | dose: 20.0 mg/kg/injection, schedule: Q01DX001 (ip), vehicle: carboxymethylcellulose (CMC) 91 % of control | dose: 40.0 mg/kg/injection, schedule: Q01DX001 (ip), vehicle: carboxymethylcellulose (CMC) 98 % of control

— PubChem BioAssay AID248 (DTP/NCI, 2004)
